The source of these data is patent publication US11401255B2, “Small molecule activators of Parkin enzyme function” (Mayo Foundation for Medical Education and Research, priority 2016, dated 2022).

Series [1] addresses Parkin (Homo sapiens (Human), UniProt O60260). Put plainly: Parkin activation in human primary fibroblasts (western blot). It counts as cell-based. The note with it: for MFN1/2 degradation and pSer65-Ub levels: 5 μM before low dose CCCP (3.5 μM); for MFN1 ubiquitylation or pSer65-Ub signals, compound treatment alone: different concentrations, 2 h, absence of CCCP. How it is done: FIGS. 15A-15H show Parkin activation in primary fibroblasts, neuronal cells and in vitro. Positive control (PC) cells were treated with DMSO and 10 μM of CCCP. Negative control (NC) cells were treated with 3.5 μM CCCP, some cells were left untreated (−). […] Vinculin was used as loading control. […] FIG. 15C: Human fibroblasts were directly converted to neurons and treated as in FIG. 15B. […] Beta III tubulin confirmed successful conversion of fibroblasts to iNeurons. FIG. 15D: Rat PC12 cells were treated as in FIG. 15A. Western blots show enhanced ubiquitylation of MFN2 and TOM70, and robust pSer65-Ub induction similar to PC, but not NC cells. FIG. 15E: In vitro E2 discharge assay. Recombinant Parkin was pre-incubated with compound 4 or DMSO as control and was mixed to Ub-loaded UbcH7. […] Control reactions were performed without PINK1 or Parkin. FIG. 15F: In vitro assay with isolated mitochondria from untreated or CCCP-treated HeLa cells lacking Parkin. Mitochondrial preparations were mixed with recombinant Parkin, E1, UbcH7, ATP and either compound 4 or DMSO as a control and incubated for the indicated times. […] Control samples were incubated in reaction mix without Parkin. FIG. 15G: Protein melting was performed with 50 ng purified Parkin mixed with SYPRO orange and DMSO as control or 500 nM compound 4. […] FIG. 15H: Statistical analysis of three independent experiments as performed in FIG. 15G. Shown in the average value+/−SD (unpaired, two-sided t-test; *** p<0.0005).
FIG. 16A: Quantification of pSer65-Ub signal using sandwich ELISA from six independent experiments performed in human fibroblast treated as described in FIG. 15A. Shown in the average−/+SD. One-way ANOVA with Tukey's posthoc test (*** p<0.0005). FIG. 16B: Human primary fibroblasts were treated with different concentrations of all five compounds (1, 2, 3, 4, and 31) for 2 h. […] Different CCCP concentrations were used as positive control. FIG. 16C: Rat PC12 cells were pretreated with 5 μM of the compounds for 2 h and then treated with low dose of CCCP (3.5 μM). Control cells were treated with DMSO and either 10 μM CCCP (PC) or 3.5 μM (NC). Some cells received no CCCP (−). […] The PINK1/Parkin product pSer65-Ub was induced by all five compounds upon low dose treatment and in positive controls. FIG. 16D: PC12 cells were differentiated by treatment with NGF (NGF+). Some cells were left undifferentiated (NGF−). Cells were treated with 5 μM of compounds or DMSO as indicated. 2 h later, low dose CCCP (3.5 μM) was added to cells treated with test compounds. DMSO controls were either treated with 3.5 μM CCCP (NC) or 10 μM CCCP (PC). Some cells were not treated with CCCP (−). Western blots probed with antibodies against MFN1 show degradation in cells treated with compounds and in the positive control. Some degradation can also be observed in the negative control. […] Beta III tubulin was used to confirm successful differentiation. Vinculin was used as loading control.
Primary fibroblasts (Cell Applications) were cultured in fibroblast growth medium (FGM): DMEM containing 10% FBS, 1% penicillin-streptomycin and 1% non-essential amino acids. Direct conversion to neurons was performed utilizing short hairpin RNA targeting polypyrimidine-tract-binding protein (shPTB), which affects proneuronal micro-RNA circuits (Xue et al., Cell (2013) 152:82-96. Cells were seeded with 40,000 cells/mL and allowed to adhere overnight. 48 h after transduction with pLKO. 1_shPTB lentivirus, positive cells were selected with 2 μg/mL puromycin in fibroblast growth medium. On day 6 media was changed to FGM containing 10 ng/mL fibroblast growth factor (FGF, Genscript). On day 8, media was changed to differentiation media (DMEM:F12 (Invitrogen), 25 μg/mL insulin, 50 μg/mL transferrin, 0.1 μM putrescine 0.03 μM Na-selenite (all Sigma-Aldrich), and 15 ng/mL FGF) containing 5% FBS. On days 10 and 12 media was replaced with differentiation media containing reduced serum (2% FBS). […]

The target in series [2] is CYP 1A2 (Homo sapiens (Human), UniProt P05177). Put plainly: in vitro. How it is done:
(§1) CYP450 inhibition profiling provides valuable information regarding any possible drug-drug interactions for a test compound.
(§2) All experiments were performed using P450-Glo™ Assay Systems (Promega) in accordance with the manufacturer's protocols. The P450-Glo™ Assays provide a luminescent readout-based method for measuring cytochrome P450 activity. A conventional cytochrome P450 reaction was performed by incubating the cytochrome P450 and a luminogenic cytochrome P450 substrate. The substrates in the P450-Glo™ assays are derivatives of beetle luciferin. The derivatives themselves are not substrates for luciferase but are converted by cytochrome P450s to luciferin, which in turn reacts with luciferase to produce light. The amount of light produced was directly proportional to cytochrome P450 activity. All test points were performed in quadruplicates. Control membranes (without CYPs) represented the Negative control (baseline).
(§3) The following reference compounds were used to assess CYP inhibition: […]

Series [3] addresses CYP 2C19 (Homo sapiens (Human), UniProt P33261). The series is described as follows: in vitro. How it is done:
as §1, §2, §3

In series [4] the target is CYP 3A4 (Homo sapiens (Human), UniProt P08684). Put plainly: in vitro. The note with it: % Mean. How it is done:
as §1, §2, §3

Entries after “also recorded” stand apart in the source; their conditions may differ.

For orientation: inhibition means the change of the read-out against control, counted positive when it falls.

Sequence of Parkin (O60260 whole entry): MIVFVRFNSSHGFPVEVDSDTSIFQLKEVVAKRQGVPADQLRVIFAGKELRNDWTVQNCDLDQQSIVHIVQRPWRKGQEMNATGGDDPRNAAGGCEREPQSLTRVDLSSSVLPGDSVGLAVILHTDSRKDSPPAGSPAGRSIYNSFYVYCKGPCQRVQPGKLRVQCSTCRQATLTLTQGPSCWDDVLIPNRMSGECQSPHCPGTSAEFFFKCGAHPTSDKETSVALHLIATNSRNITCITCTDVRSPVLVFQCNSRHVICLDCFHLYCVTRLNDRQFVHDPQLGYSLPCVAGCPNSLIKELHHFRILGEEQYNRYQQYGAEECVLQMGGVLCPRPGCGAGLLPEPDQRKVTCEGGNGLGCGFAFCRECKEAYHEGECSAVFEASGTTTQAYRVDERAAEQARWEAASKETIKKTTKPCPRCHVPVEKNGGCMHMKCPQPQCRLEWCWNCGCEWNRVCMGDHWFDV
Sequence of CYP 3A4 (P08684 whole entry): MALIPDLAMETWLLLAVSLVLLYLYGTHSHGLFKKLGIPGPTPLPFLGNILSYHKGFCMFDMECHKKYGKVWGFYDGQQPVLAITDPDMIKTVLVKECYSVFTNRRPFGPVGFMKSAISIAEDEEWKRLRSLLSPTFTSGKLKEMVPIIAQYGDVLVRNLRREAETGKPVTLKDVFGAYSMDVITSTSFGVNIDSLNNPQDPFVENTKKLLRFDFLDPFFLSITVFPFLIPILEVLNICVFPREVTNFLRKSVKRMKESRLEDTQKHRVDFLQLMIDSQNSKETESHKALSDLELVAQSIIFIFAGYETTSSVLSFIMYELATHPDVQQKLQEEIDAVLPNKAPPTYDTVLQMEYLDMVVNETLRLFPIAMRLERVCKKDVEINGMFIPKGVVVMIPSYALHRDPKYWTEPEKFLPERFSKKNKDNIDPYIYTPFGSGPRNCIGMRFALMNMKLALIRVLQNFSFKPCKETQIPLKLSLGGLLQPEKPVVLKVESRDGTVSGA
Sequence of CYP 1A2 (P05177 whole entry): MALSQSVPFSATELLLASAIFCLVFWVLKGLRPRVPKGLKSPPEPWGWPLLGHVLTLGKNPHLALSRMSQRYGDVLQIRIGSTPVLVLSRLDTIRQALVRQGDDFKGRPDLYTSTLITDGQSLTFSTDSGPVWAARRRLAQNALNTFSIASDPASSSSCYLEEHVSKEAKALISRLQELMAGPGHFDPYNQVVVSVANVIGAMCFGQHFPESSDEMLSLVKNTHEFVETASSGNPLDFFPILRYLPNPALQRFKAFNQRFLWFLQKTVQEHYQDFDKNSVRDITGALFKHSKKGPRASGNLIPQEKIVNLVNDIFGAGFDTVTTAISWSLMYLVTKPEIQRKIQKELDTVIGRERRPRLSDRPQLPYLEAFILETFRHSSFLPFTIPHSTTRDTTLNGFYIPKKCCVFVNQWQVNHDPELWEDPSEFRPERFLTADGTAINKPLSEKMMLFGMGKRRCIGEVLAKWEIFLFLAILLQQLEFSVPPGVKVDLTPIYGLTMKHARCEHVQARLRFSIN
Sequence of CYP 2C19 (P33261 whole entry): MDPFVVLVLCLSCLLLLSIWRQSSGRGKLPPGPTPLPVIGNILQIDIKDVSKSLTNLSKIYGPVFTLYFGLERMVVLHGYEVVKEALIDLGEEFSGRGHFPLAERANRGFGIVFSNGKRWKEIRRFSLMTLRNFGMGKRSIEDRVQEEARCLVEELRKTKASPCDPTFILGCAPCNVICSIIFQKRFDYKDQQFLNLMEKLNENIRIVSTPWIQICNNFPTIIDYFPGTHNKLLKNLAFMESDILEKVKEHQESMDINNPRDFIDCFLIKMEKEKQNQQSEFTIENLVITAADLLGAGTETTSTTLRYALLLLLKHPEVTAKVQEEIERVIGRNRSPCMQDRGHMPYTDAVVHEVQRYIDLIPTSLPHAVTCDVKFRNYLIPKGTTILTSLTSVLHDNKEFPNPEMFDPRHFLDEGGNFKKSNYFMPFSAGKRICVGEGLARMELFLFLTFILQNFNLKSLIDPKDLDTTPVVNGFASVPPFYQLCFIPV

Consider `O=C(Cn1cnc2c1CCCC2)Nc1ccc(-c2ccccc2)cc1` [Compound 1], for which, in series [1], the “MFN1/2 degradation and pSer65-Ub levels” value is “enhanced degradation of the substrates MFN1/2 and increase of pSer65-Ub levels; also recorded: strongest effects”. For the same compound, the “MFN1 ubiquitylation or pSer65-Ub signals, compound treatment alone” value (from here on “MFN1 ubiquitylation or pSer65-Ub signals”) in series [1] was “did not induce MFN1 ubiquitylation or pSer65-Ub signals”. Besides, the inhibition at 10 µM in series [2] (% (individual replicates)) is 73.2%; in series [2] (% Mean), 69%; in series [3] (% Mean), 9.4%; in series [4] it was -24.4%.

Turning to `CC(C)c1nccn1CC(=O)Nc1ccc(-c2ccccc2)cc1` [Compound 2], the “MFN1/2 degradation and pSer65-Ub levels” value in series [1] is “enhanced degradation of the substrates MFN1/2 and increase of pSer65-Ub levels”. Also, the “MFN1 ubiquitylation or pSer65-Ub signals” value in series [1] was “did not induce MFN1 ubiquitylation or pSer65-Ub signals”. The inhibition at 10 µM in series [2] (% (individual replicates)) was 49.3%; in series [2] (% Mean), 40.4%; in series [3] (% Mean), -9.5%; in series [4], -14.3%.

As to `CC(C)(C)Sc1ccc(NC(=O)Cn2ccnc2)cc1` [Compound 3], in series [1], the “MFN1/2 degradation and pSer65-Ub levels” value was “enhanced degradation of the substrates MFN1/2 and increase of pSer65-Ub levels”. In series [1], the “MFN1 ubiquitylation or pSer65-Ub signals” value is listed as “did not induce MFN1 ubiquitylation or pSer65-Ub signals”. The inhibition at 10 µM in series [2] (% (individual replicates)) turned out to be 98.6%; in series [2] (% Mean), 97.6%; in series [3] (% (individual replicates)), 97.4%; in series [3] (% Mean), 92.5%; in series [4] it was 88.3%.

As to `O=C(Cn1ccnc1-c1ccccn1)Nc1ccc(-c2ccccc2)cc1` [Compound 4], in series [1], the “MFN1/2 degradation and pSer65-Ub levels” value is “enhanced degradation of the substrates MFN1/2 and increase of pSer65-Ub levels; also recorded: strongest effects”. For the same compound, in series [1] (5 μM for 2 h before different concentrations of CCCP), the “mitofusin ubiquitylation/degradation and pSer65-Ub signal” value is “increased ubiquitylation/degradation of mitofusins and amplification of the pSer65-Ub signal”. Moreover, the “MFN1 ubiquitylation or pSer65-Ub signals” value in series [1] is recorded as “did not induce MFN1 ubiquitylation or pSer65-Ub signals”. The figures for the inhibition at 10 µM in series [2] (% Mean), in series [3] (% Mean) and in series [4] were 5.6%, -10.3% and 1.4%, respectively.

Regarding `Cc1nc2c(c(N3CCCN(Cc4ccccc4)CC3)n1)CCCC2` [Compound 31], in series [1], the “MFN1/2 degradation and pSer65-Ub levels” value was “enhanced degradation of the substrates MFN1/2 and increase of pSer65-Ub levels”. Further, the “MFN1 ubiquitylation or pSer65-Ub signals” value in series [1] was “did not induce MFN1 ubiquitylation or pSer65-Ub signals”. Also, the inhibition at 10 µM was -0.7% in series [2] (% Mean), 14% in series [3] (% (individual replicates)), 16.2% in series [3] (% Mean) and -16.1% in series [4].
